Results as given in PMC11189555, “Aryl amino acetamides prevent Plasmodium falciparum ring development via targeting the lipid-transfer protein PfSTART1” (Nature Communications, 2024).
Several values for one entry are separate records, joined by “and”; a condition that tells them apart may be missing. Equal entries are not always repeated. Entries after “also recorded” stand apart in the source; their conditions may differ.

How the values were obtained:
PfSTART1 = PfSTART1 knock-down by glucosamine (glmS riboswitch), Western blot densitometry; format: cell-based, Plasmodium falciparum; conditions: 2.5 mM GlcN; for START densitometry, Norm 0 mM [EXP2]: one value per biological replicate; for START densitometry, norm 0/EXP2: START band normalised to EXP2, then to 0 mM GlcN of the same line; for START densitometry, norm 0/EXP2 / START densitometry, norm 0/HSP / START densitometry, norm 3D7, EXP2 / START densitometry, norm 3D7, HSP70: 3 biological replicates; for START densitometry, norm 0/HSP: START band normalised to HSP70, then to 0 mM GlcN of the same line; for START densitometry, norm 3D7, EXP2: START/EXP2 relative to 3D7 at 0 mM GlcN (=1.00E+02); for START densitometry, norm 3D7, HSP70: START/HSP70 relative to 3D7 at 0 mM GlcN (=1.00E+02); for PfSTART1 knockdown: 48 h
Procedure: Parasites were prepared for the stage of interest and proteins were extracted using a saponin-lysis (unless indicated otherwise). For knock-down assays, parasites were exposed to 0 or 2.5 mM GlcN for 48 h (starting from late schizont/early rings): the day before harvesting schizonts, 30 nM ML10 (LifeArc) was also added to the cultures to block egress. Infected red blood cells were lysed 10 min on ice with 0.1% saponin in PBS complemented with 1x Protease Inhibitors Cocktail (Roche; PBS + PI). Parasites were pelleted and washed with PBS + PI to remove haemoglobin. […] Protein samples were centrifuged at 15,000 g, then run on a pre-cast 4-12% NuPAGE Bis-Tris gel (Invitrogen) and proteins were transferred onto a nitrocellulose membrane using iBlot (Invitrogen). Membranes were exposed to the primary antibody overnight at 4 °C, to the secondary antibody 1 h at room temperature, and fluorescence was measured using an Odyssey imaging system, which was also used to measure densitometry. The list of antibodies used, their dilution, and origins are described in Table S3.

[1] = tested on: P. falciparum NF54 gametocytes fed to An. stephensi; experiment: Standard membrane feeding assay (London School of Hygiene and Tropical Medicine); format: in vivo, Plasmodium falciparum; conditions: W-991 1, 50, 100 nM; second insectary; Fig S7C-D
Procedure: (§1) These assays were performed at the Walter and Eliza Hall Institute and at the London School of Hygiene and Tropical Medicine using slightly different approaches which are described in the Supplementary Information. […]
(§2) Gametocyte culturing and standard membrane feeding assay (London School of Hygiene and Tropical Medicine). P. falciparum NF54 gametocytes were prepared for blood-feeding to mosquitoes according to the method described by 13, with some slight modifications. Briefly, gametocyte cultures seeded at 2% overall parasitaemia and 4% haematocrit were maintained at 37 °C for 17 days with daily media changes.
(§3) Gametocyte functional viability was assessed by ex-flagellation assay at day 14 post induction, observed by light microscopy. An. stephensi (SD500 strain) were reared as […]
(§4) Gametocyte aliquots from a single NF54 culture, produced as above, were incubated […]
(§5) or culture medium only (no -drug control) from day 14 until day 17 when SMFA was carried out. Fresh drug -containing media was provided each day during this exposure.
Pots of 70 -80 two- to five-day old female An. stephensi mosquitoes were allowed to feed on 500 µL of the respective culture+drug mixture, presented to each pot in a pre - heated 3D -printed water channel membrane feeder 15, until fully fed. […]

stage IV-V gametocytes = experiment: Standard membrane feeding assay: stage V gametocytes on day 17; format: cell-based, Plasmodium falciparum; conditions: days 14-17; for Percentage of Stage V gametocytes: Fig 7C, untreated 4.75
Procedure: as §1, §2, §3, §4, §5
Pots of 70 -80 two- to five-day old female An. stephensi mosquitoes were allowed to feed on 500 µL of the respective culture+drug mixture, presented to each pot in a pre - heated 3D -printed water channel membrane feeder 15, until fully fed. Mosquitoes were placed in an incubator at standard conditions and midguts dissected in 0.25% mercurochrome stain for oocyst counts by light microscopy 7-8 days post-feed. […]

[2] = target: T1, PfSTART1 in parasite lysate (Plasmodium falciparum, UniProt Q8I298); experiment: Solvent profiling Western Blot (solvent induced protein precipitation); format: binding; conditions: 10 µM W-991 vs DMSO, 0-25% AEF
T1 construct: endogenous in cells; host or cells: P. falciparum 3D7 schizonts, NP40-soluble lysate
Procedure: 3D7 parasites at schizont stage were harvested with 10 x pellet volume of 0.15% saponin in PBS. To extract soluble material, 10 x pellet volume of 0.4% NP40 (IGEPAL CA-630, Sigma-Aldrich) in PBS with 1x Complete Protease cocktail tablet (Sigma-Aldrich) was added to the parasite pellets and 3 cycles of freeze/thawing was performed. Samples were then mechanically sheared by passage through 25 G and 30 G needles before lysate was cleared via centrifugation at 16,000 g x 30 min at 4 °C. Soluble fractions were collected and stored at −80 °C until use.
For the solvent challenge, lysate was subjected to either W-991 (10 µM) or DMSO (0.1%) treatment for 3 min before aliquoted into final concentrations of 0-25% of Acetic acid/Ethanol/Formic acid (AEF) at a 50:50:0.1 (v/v/v)[25],[26]. The treated lysate and AEF mixture was incubated at 37 °C for 20 min at 800 rpm before aggregates were pelleted at 17,000 g x 20 min at 4 °C. Soluble fractions were removed, added to the final concentration of 1x NuPAGE LDS Sample Buffer (Invitrogen) with 1:100 2-mercaptoethanol (Sigma Aldrich) and boiled for 3 min. Proteins were separated on an 4-12% acrylamide gel (NuPAGE, Invitrogen) and subsequently transferred by electroblotting onto nitrocellulose membranes. Blots were probed with primary antibody anti-PfSTART1 (1:1000), followed by secondary antibody anti-rabbit-HRP (1:4000, Merck Millipore). […]

[3] = tested on: P. falciparum oocysts in mosquito midguts; experiment: Standard membrane feeding assay: oocysts in mosquito midguts (Walter and Eliza Hall Institute); format: in vivo, Plasmodium falciparum; conditions: for Oocyst counts from individual mosquitoes: 30 mosquitoes dissected
Procedure: as §1
were aspirated into a cup and anesthetized by cooling to 4 °C until immobilized and kept on ice for the dissection. The mosquitoes were then dissected as previously described 12 and collected midguts were maintained in 1X PBS (Gibco) until they were stained with mercurochrome for 20 mins. […]

T1 sequence (Q8I298 entry or part of it): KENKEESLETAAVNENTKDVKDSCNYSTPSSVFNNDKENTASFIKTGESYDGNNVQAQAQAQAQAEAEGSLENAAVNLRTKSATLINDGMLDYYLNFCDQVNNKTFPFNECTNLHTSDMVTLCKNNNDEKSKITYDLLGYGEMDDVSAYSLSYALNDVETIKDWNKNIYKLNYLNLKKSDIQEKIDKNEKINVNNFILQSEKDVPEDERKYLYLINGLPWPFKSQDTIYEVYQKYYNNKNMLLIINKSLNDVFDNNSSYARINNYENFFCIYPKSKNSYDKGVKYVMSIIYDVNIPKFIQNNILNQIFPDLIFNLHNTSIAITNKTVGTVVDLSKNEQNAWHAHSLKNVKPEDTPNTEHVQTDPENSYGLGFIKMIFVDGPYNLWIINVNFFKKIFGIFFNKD

Q: `N[C@H]1C(O)O[C@H](CO)[C@@H](O)[C@@H]1O` (stereo partly shown) [GlcN, glucosamine] was tested. Which “START densitometry, Norm 0 mM [EXP2]” value (PfSTART1; 3D7) did it give?
A: 1.02E+02 and 1.14E+02 and 9.72E+01

Q: And the “START densitometry, norm 0/EXP2” value (PfSTART1; 3D7 parasites)?
A: 1.29E+02 and 9.38E+01 and 8.16E+01

Q: And the “START densitometry, norm 0/HSP” value (PfSTART1; 3D7 parasites)?
A: 1.32E+02 and 1.01E+02 and 9.77E+01

Q: What about the “START densitometry, norm 3D7, EXP2” value (PfSTART1; 3D7 parasites) of the same compound?
A: 1.29E+02 and 9.38E+01 and 8.16E+01

Q: What about the “START densitometry, norm 3D7, HSP70” value (PfSTART1; 3D7 parasites) of the same compound?
A: 1.32E+02 and 1.01E+02 and 9.77E+01

Q: And the “START densitometry, norm 0/EXP2” value (PfSTART1; CR-N309K parasites)?
A: 1.17E+01 and 2.98E+01 and 1.90E+01

Q: And the “START densitometry, norm 0/HSP” value (PfSTART1; CR-N309K parasites)?
A: 2.14E+01 and 2.66E+01 and 2.27E+01

Q: What about the “START densitometry, norm 3D7, EXP2” value (PfSTART1; CR-N309K parasites) of the same compound?
A: 1.40E+01 and 3.50E+01 and 1.71E+01

Q: What about the “START densitometry, norm 3D7, HSP70” value (PfSTART1; CR-N309K parasites) of the same compound?
A: 1.73E+01 and 1.93E+01 and 2.63E+01

Q: And the PfSTART1 knockdown (PfSTART1; CR-N309K schizonts)?
A: 81%

Q: And the “START densitometry, norm 0/EXP2” value (PfSTART1; CR-N330K parasites)?
A: 1.02E+01 and 3.10E+01 and 7.15E+00

Q: And the “START densitometry, norm 0/HSP” value (PfSTART1; CR-N330K parasites)?
A: 2.77E+01 and 2.71E+01 and 1.13E+01

Q: What about the “START densitometry, norm 3D7, EXP2” value (PfSTART1; CR-N330K parasites) of the same compound?
A: 1.13E+01 and 3.35E+01 and 1.19E+01

Q: What about the “START densitometry, norm 3D7, HSP70” value (PfSTART1; CR-N330K parasites) of the same compound?
A: 2.31E+01 and 2.22E+01 and 2.51E+01

Q: What about the PfSTART1 knockdown (PfSTART1; CR-N330K schizonts) of the same compound?
A: 84%

Q: What about the “START densitometry, norm 0/EXP2” value (PfSTART1; CR-WT parasites) of the same compound?
A: 2.42E+01 and 2.14E+01 and 2.95E+01

Q: What about the “START densitometry, norm 0/HSP” value (PfSTART1; CR-WT parasites) of the same compound?
A: 2.70E+01 and 2.58E+01 and 2.79E+01

Q: And the “START densitometry, norm 3D7, EXP2” value (PfSTART1; CR-WT parasites)?
A: 3.52E+01 and 2.52E+01 and 2.73E+01

Q: What about the “START densitometry, norm 3D7, HSP70” value (PfSTART1; CR-WT parasites) of the same compound?
A: 2.33E+01 and 2.02E+01 and 4.40E+01

Q: And the PfSTART1 knockdown (PfSTART1; CR-WT schizonts)?
A: 75%

Q: And the PfSTART1 knockdown (PfSTART1; SLI-N309K schizonts)?
A: 43%

Q: What about the “START densitometry, Norm 0 mM [EXP2]” value (PfSTART1; SLI-N309K) of the same compound?
A: 5.39E+01 and 7.05E+01 and 4.74E+01

Q: And the PfSTART1 knockdown (PfSTART1; SLI-N330K schizonts)?
A: 70%

Q: What about the “START densitometry, Norm 0 mM [EXP2]” value (PfSTART1; SLI-N330K) of the same compound?
A: 2.99E+01 and 2.84E+01 and 3.23E+01

Q: What about the PfSTART1 knockdown (PfSTART1; SLI-WT schizonts) of the same compound?
A: 60%

Q: And the “START densitometry, Norm 0 mM [EXP2]” value (PfSTART1; SLI-WT)?
A: 5.15E+01 and 2.89E+01 and 3.95E+01

Q: Which results are given for `CC(C)(Nc1ccc(Cl)c(S(=O)(=O)N2CCOCC2)c1)C(=O)Nc1ccc(F)c(Cl)c1` [W-991]?
A: transmission to mosquitoes [1]: reduction in transmission; Percentage of Stage V gametocytes (stage IV-V gametocytes; W-991 1 nM): 5%; Percentage of Stage V gametocytes (stage IV-V gametocytes; W-991 50 nM): 5.3%; Percentage of Stage V gametocytes (stage IV-V gametocytes; W-991 100 nM): 5%; effect on gametocyte development (stage IV-V gametocytes; W-991 1, 50, 100 nM): no defect in gametocyte development; also recorded: no impact; AEF concentration at which protection to PfSTART1 aggregation was elicited [2]: 19-21 % AEF; reduction of the number of oocysts compared to untreated control ([3]; 100 nM W-991, oocysts counted 7 days after feeding): > 20 fold; Oocyst counts from individual mosquitoes ([3]; W-991 1 nM): 38 and 56 and 49 and 30 and 0 and 4 and 7 and 9 and 6 and 8 and 12 and 35 and 22 and 20 and 13 and 50 and 15 and 10 and 31 and 18 and 11 and 24 and 1; Oocyst counts from individual mosquitoes ([3]; W-991 50 nM): 9 and 3 and 23 and 27 and 20 and 4 and 12 and 0 and 7 and 10 and 2 and 31 and 22 and 1 and 17; Oocyst counts from individual mosquitoes ([3]; W-991 100 nM): 6 and 0 and 2 and 16 and 24 and 8 and 11 and 5 and 1 and 7 and 12; oocysts per mosquito ([3]; W-991 1, 50, 100 nM, day 7 after feeding): dose-dependent decrease in oocysts per mosquito
